# According to PubChem BioAssay (NCI):
#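 The compound was tested at five concentrations on cells cultured in 96-well plates, with a 48-hour exposure period. The concentration for full growth arrest is given as TGI.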 Active and inactive are the calls of the source. Cut-off read from the data, not from the text of the source: active = GI50 below about 0.43 µM; inactive = the rest.
# Experiments:
# Experiment in all cases: NCI anticancer screen, dose series, 48 h
# 786-0 renal = test system: 786-0 renal
# A498 renal = test system: A498 renal
# A549 NSCLC = test system: A549 NSCLC
# ACHN renal = test system: ACHN renal
# BT-549 breast = test system: BT-549 breast
# CAKI-1 renal = test system: CAKI-1 renal
# CCRF-CEM leukemia = test system: CCRF-CEM leukemia
# COLO 205 colon = test system: COLO 205 colon
# EKVX NSCLC = test system: EKVX NSCLC
# HCC-2998 colon = test system: HCC-2998 colon
# HCT-116 colon = test system: HCT-116 colon
# HCT-15 colon = test system: HCT-15 colon
# HOP-62 NSCLC = test system: HOP-62 NSCLC
# IGROV1 ovarian = test system: IGROV1 ovarian
# KM12 colon = test system: KM12 colon
# LOX IMVI melanoma = test system: LOX IMVI melanoma
# M14 melanoma = test system: M14 melanoma
# MALME-3M melanoma = test system: MALME-3M melanoma
# MCF7 breast = test system: MCF7 breast
# MDA-MB-231 breast = test system: MDA-MB-231 breast
# MDA-MB-435 = test system: MDA-MB-435
# MDA-N = test system: MDA-N
# NCI-H226 lung = test system: NCI-H226 lung
# NCI-H23 lung = test system: NCI-H23 lung
# NCI-H460 lung = test system: NCI-H460 lung
# NCI-H522 lung = test system: NCI-H522 lung
# NCI/ADR-RES ovarian = test system: NCI/ADR-RES ovarian
# OVCAR-3 ovarian = test system: OVCAR-3 ovarian
# OVCAR-4 ovarian = test system: OVCAR-4 ovarian
# OVCAR-5 ovarian = test system: OVCAR-5 ovarian
# OVCAR-8 ovarian = test system: OVCAR-8 ovarian
# PC-3 prostate = test system: PC-3 prostate
# RPMI-8226 leukemia = test system: RPMI-8226 leukemia
# RXF 393 renal = test system: RXF 393 renal
# SF-268 CNS = test system: SF-268 CNS
# SF-295 CNS = test system: SF-295 CNS
# SF-539 CNS = test system: SF-539 CNS
# SK-MEL-2 melanoma = test system: SK-MEL-2 melanoma
# SK-MEL-28 melanoma = test system: SK-MEL-28 melanoma
# SK-OV-3 ovarian = test system: SK-OV-3 ovarian
# SN12C renal = test system: SN12C renal
# SNB-19 CNS = test system: SNB-19 CNS
# SNB-75 CNS = test system: SNB-75 CNS
# SW-620 colon = test system: SW-620 colon
# T-47D breast = test system: T-47D breast
# TK-10 renal = test system: TK-10 renal
# U251 CNS = test system: U251 CNS
# UACC-257 melanoma = test system: UACC-257 melanoma
# UO-31 renal = test system: UO-31 renal
# DU-145 prostate = test system: DU-145 prostate
# HL-60(TB) leukemia = test system: HL-60(TB) leukemia
# HOP-92 NSCLC = test system: HOP-92 NSCLC
# HT29 colon = test system: HT29 colon
# K-562 leukemia = test system: K-562 leukemia
# SK-MEL-5 melanoma = test system: SK-MEL-5 melanoma
# SR leukemia = test system: SR leukemia
# UACC-62 melanoma = test system: UACC-62 melanoma
# HS 578T breast = test system: HS 578T breast
# MOLT-4 leukemia = test system: MOLT-4 leukemia
smiles,measurement,setting,value
CC(C)=CC(O)C(C(O)CCC1(C)OCCO1)S(=O)(=O)c1ccccc1 (configuration not stated),TGI,786-0 renal,> 100 µM
same,TGI,A498 renal,> 100 µM
same,TGI,A549 NSCLC,> 100 µM
same,TGI,ACHN renal,> 100 µM
same,TGI,BT-549 breast,> 100 µM
same,TGI,CAKI-1 renal,> 100 µM
same,TGI,CCRF-CEM leukemia,> 100 µM
same,TGI,COLO 205 colon,> 100 µM
same,TGI,EKVX NSCLC,> 100 µM
same,TGI,HCC-2998 colon,> 100 µM
same,TGI,HCT-116 colon,> 100 µM
same,TGI,HCT-15 colon,> 100 µM
same,TGI,HOP-62 NSCLC,> 100 µM
same,TGI,IGROV1 ovarian,> 100 µM
same,TGI,KM12 colon,> 100 µM
same,TGI,LOX IMVI melanoma,> 100 µM
same,TGI,M14 melanoma,> 100 µM
same,TGI,MALME-3M melanoma,> 100 µM
same,TGI,MCF7 breast,> 100 µM
same,TGI,MDA-MB-231 breast,> 100 µM
same,TGI,MDA-MB-435,> 100 µM
same,TGI,MDA-N,> 100 µM
same,TGI,NCI-H226 lung,> 100 µM
same,TGI,NCI-H23 lung,> 100 µM
same,TGI,NCI-H460 lung,> 100 µM
same,TGI,NCI-H522 lung,> 100 µM
same,TGI,NCI/ADR-RES ovarian,> 100 µM
same,TGI,OVCAR-3 ovarian,> 100 µM
same,TGI,OVCAR-4 ovarian,> 100 µM
same,TGI,OVCAR-5 ovarian,> 100 µM
same,TGI,OVCAR-8 ovarian,> 100 µM
same,TGI,PC-3 prostate,> 100 µM
same,TGI,RPMI-8226 leukemia,> 100 µM
same,TGI,RXF 393 renal,> 100 µM
same,TGI,SF-268 CNS,> 100 µM
same,TGI,SF-295 CNS,> 100 µM
same,TGI,SF-539 CNS,> 100 µM
same,TGI,SK-MEL-2 melanoma,> 100 µM
same,TGI,SK-MEL-28 melanoma,> 100 µM
same,TGI,SK-OV-3 ovarian,> 100 µM
same,TGI,SN12C renal,> 100 µM
same,TGI,SNB-19 CNS,> 100 µM
same,TGI,SNB-75 CNS,> 100 µM
same,TGI,SW-620 colon,> 100 µM
same,TGI,T-47D breast,> 100 µM
same,TGI,TK-10 renal,> 100 µM
same,TGI,U251 CNS,> 100 µM
same,TGI,UACC-257 melanoma,> 100 µM
same,TGI,UO-31 renal,> 100 µM
Cn1c(C(O)C2(c3cccnc3)SCCCS2)cc2ccccc21 (configuration not stated),TGI,786-0 renal,> 100 µM
same,TGI,A498 renal,> 100 µM
same,TGI,A549 NSCLC,> 100 µM
same,TGI,ACHN renal,> 100 µM
same,TGI,BT-549 breast,> 100 µM
same,TGI,CAKI-1 renal,> 100 µM
same,TGI,CCRF-CEM leukemia,> 100 µM
same,TGI,COLO 205 colon,> 100 µM
same,TGI,DU-145 prostate,> 100 µM
same,TGI,EKVX NSCLC,> 100 µM
same,TGI,HCC-2998 colon,> 100 µM
same,TGI,HCT-116 colon,> 100 µM
same,TGI,HCT-15 colon,> 100 µM
same,TGI,HL-60(TB) leukemia,> 100 µM
same,TGI,HOP-62 NSCLC,> 100 µM
same,TGI,HOP-92 NSCLC,> 100 µM
same,TGI,HT29 colon,> 100 µM
same,TGI,IGROV1 ovarian,> 100 µM
same,TGI,K-562 leukemia,> 100 µM
same,TGI,KM12 colon,> 100 µM
same,TGI,LOX IMVI melanoma,> 100 µM
same,TGI,M14 melanoma,> 100 µM
same,TGI,MALME-3M melanoma,> 100 µM
same,TGI,MCF7 breast,> 100 µM
same,TGI,MDA-MB-231 breast,> 100 µM
same,TGI,MDA-MB-435,> 100 µM
same,TGI,MDA-N,> 100 µM
same,TGI,NCI-H226 lung,> 100 µM
same,TGI,NCI-H23 lung,> 100 µM
same,TGI,NCI-H460 lung,> 100 µM
same,TGI,NCI/ADR-RES ovarian,> 100 µM
same,TGI,OVCAR-3 ovarian,> 100 µM
same,TGI,OVCAR-4 ovarian,> 100 µM
same,TGI,OVCAR-5 ovarian,> 100 µM
same,TGI,OVCAR-8 ovarian,> 100 µM
same,TGI,PC-3 prostate,> 100 µM
same,TGI,RPMI-8226 leukemia,> 100 µM
same,TGI,SF-268 CNS,> 100 µM
same,TGI,SF-295 CNS,> 100 µM
same,TGI,SK-MEL-2 melanoma,> 100 µM
same,TGI,SK-MEL-28 melanoma,> 100 µM
same,TGI,SK-MEL-5 melanoma,> 100 µM
same,TGI,SK-OV-3 ovarian,> 100 µM
same,TGI,SN12C renal,> 100 µM
same,TGI,SNB-19 CNS,> 100 µM
same,TGI,SNB-75 CNS,> 100 µM
same,TGI,SR leukemia,> 100 µM
same,TGI,SW-620 colon,> 100 µM
same,TGI,T-47D breast,> 100 µM
same,TGI,TK-10 renal,> 100 µM
same,TGI,U251 CNS,> 100 µM
same,TGI,UACC-257 melanoma,> 100 µM
same,TGI,UACC-62 melanoma,> 100 µM
same,TGI,UO-31 renal,> 100 µM
C[C@H](N)C(O)C/C=C\CC(O)/C=C/C=C\C/C=C\C/C=C\C/C=C\CCCCCCC(O)[C@H](C)N (some centres not stated),outcome,786-0 renal,inactive
same,outcome,A498 renal,inactive
same,outcome,ACHN renal,inactive
same,outcome,BT-549 breast,inactive
same,outcome,CAKI-1 renal,inactive
same,outcome,CCRF-CEM leukemia,inactive
same,outcome,COLO 205 colon,inactive
same,outcome,DU-145 prostate,inactive
same,outcome,EKVX NSCLC,inactive
same,outcome,HCC-2998 colon,inactive
same,outcome,HCT-116 colon,inactive
same,outcome,HCT-15 colon,inactive
same,outcome,HL-60(TB) leukemia,inactive
same,outcome,HOP-62 NSCLC,inactive
same,outcome,HS 578T breast,inactive
same,outcome,HT29 colon,inactive
same,outcome,K-562 leukemia,inactive
same,outcome,KM12 colon,inactive
same,outcome,LOX IMVI melanoma,inactive
same,outcome,M14 melanoma,inactive
same,outcome,MALME-3M melanoma,inactive
same,outcome,MCF7 breast,inactive
same,outcome,MDA-MB-231 breast,inactive
same,outcome,MDA-MB-435,inactive
same,outcome,MDA-N,inactive
same,outcome,MOLT-4 leukemia,inactive
same,outcome,NCI-H226 lung,inactive
same,outcome,NCI-H23 lung,inactive
same,outcome,NCI-H460 lung,inactive
same,outcome,NCI-H522 lung,inactive
same,outcome,OVCAR-3 ovarian,inactive
same,outcome,OVCAR-4 ovarian,inactive
same,outcome,OVCAR-5 ovarian,inactive
same,outcome,OVCAR-8 ovarian,inactive
same,outcome,PC-3 prostate,inactive
same,outcome,RPMI-8226 leukemia,inactive
same,outcome,RXF 393 renal,inactive
same,outcome,SF-268 CNS,inactive
same,outcome,SF-295 CNS,inactive
same,outcome,SF-539 CNS,inactive
same,outcome,SK-MEL-2 melanoma,inactive
same,outcome,SK-MEL-28 melanoma,inactive
same,outcome,SK-OV-3 ovarian,inactive
same,outcome,SN12C renal,inactive
same,outcome,SNB-19 CNS,inactive
same,outcome,SNB-75 CNS,inactive
same,outcome,SR leukemia,inactive
same,outcome,SW-620 colon,inactive
same,outcome,T-47D breast,inactive
same,outcome,TK-10 renal,inactive
same,outcome,U251 CNS,inactive
same,outcome,UACC-257 melanoma,inactive
same,outcome,UACC-62 melanoma,inactive
same,outcome,UO-31 renal,inactive
